Earlier results in patent publication US8747895B2 (priority 2004, dated 2014).
Read-outs that look alike come from different tables or passages of the source.

Settings: for absolute bioavailability: oral administration

(−)-N-Methyl-3-(o-tolyloxy)-propylamine hydrochloride [Atomoxetine]
absolute bioavailability (EMs (extensive metabolizers)): 63% | absolute bioavailability (PMs (poor metabolizers)): 94% | delay of Tmax with food (standard high-fat meal): 3 h | lower Cmax with food (standard high-fat meal): 10-37%
